Columns and labels:
[1] = tested on: rats; experiment: Pharmacological test for diuretic properties (urine volume); assay type: in vivo; settings: 50 mg/kg gastric gavage, 25 ml/kg saline s.c., urine collected 4 hours, ml/kg of body weight
Protocol: 2. Pharmacological tests for diuretic properties Lots of 3 rats weighting 250-300 g have been constituted at random, each of them being submitted to the same treatment. The compound to be tested was administered by .[.gastric gavage at a dose of 50 ml/kg as a solution or a.]. .Iadd.gastric gavage at a dose of 50 mg/kg as a solution or a .[…].suspension in water containing 0.45% of methylcellulose (which is an inert mucilaginous substance). Control animals received only distilled water as a placebo. At the same time, all the animals received 25 ml/kg of physiological saline by subcutaneous injection. The rats were then placed in metabolic cages, each cage containing 3 animals receiving the same treatment. The urines have been collected during 4 hours. […] The diuresis is expressed in ml/kg of body weight.

[2] = tested on: paw of rats; experiment: Pharmacological test for anti-inflammatory properties (carrageenan rat paw swelling); assay type: in vivo; settings: oral 1 hour before carrageenan (0.05 ml of 1%), swelling 4 hours after injection by plethysmography, dose not given
Protocol: 1. Pharmacological test for anti-inflammatory properties.
The compounds to be tested are given as freshly prepared solutions or suspensions by oral route 1 hour before injecting the paw of rats with carrageenan which is a known inflammatory agent.
The inflammatory agent (carrageenan) either in solution or suspension is then injected into the plantar tissue of the right hind paw of each rat, the left paw remaining untreated and serving as control. Each animal receives, for example, 0.05 ml of an aqueous solution containing 1% by weight of carrageenan and 0.9% of sodium chloride.
4 hours after the injection of the inflammatory agent, the importance of swelling is determined by plethysmography and is expressed as a percent of the volume of the control paw.
The anti-inflammatory effect expressed as a percentage of inhibition is obtained by comparison between rats treated with the anti-inflammatory compound and a control group of rats.

Compound | Diuresis [1] | % inhibition of acute oedema [2]
CCNC(=O)NS(=O)(=O)c1cnccc1Nc1ccc(Cl)cc1 [JDL 416, 3-ethylcarbamylsulfonamido-4-(4'-chloro)-phenylaminopyridine] | 52.8 mL/kg | 85.6%
CCNC(=O)NS(=O)(=O)c1cnccc1Nc1ccc(Cl)c(C(F)(F)F)c1 [JDL 488, 3-ethylcarbamylsulfonamido-4-(3'-trifluoromethyl-4'-chloro)-phenyl-aminopyridine] | 16.4 mL/kg | 24.8%
CCCNC(=O)NS(=O)(=O)c1cnccc1Nc1ccc(Cl)cc1 [JDL 417, 3-propylcarbamylsulfonamido-4-(4'-chloro)-phenylaminopyridine] | 58.3 mL/kg | 72.8%
CCCCNC(=O)NS(=O)(=O)c1cnccc1Nc1ccc(Cl)c(C(F)(F)F)c1 [JDL 486, 3-butylcarbamylsulfonamido-4-(3'-trifluoromethyl-4'-chloro)-phenyl aminopyridine] | 3.6 mL/kg | 16.8%
NS(=O)(=O)c1cnccc1NCc1ccco1 [JDL 181, 3-sulfonamido-4-methylfurylamino-pyridine] | 14.8 mL/kg | 21.6%
CCNC(=S)NS(=O)(=O)c1cnccc1Nc1cccc(C(F)(F)F)c1 [JDL 420, 3-ethylthiocarbamylsulfonamido-4-(3'trifluoromethyl)-phenylaminopyridine] | 65.0 mL/kg | 52.8%
O=C(Nc1ccccc1)NS(=O)(=O)c1cnccc1Nc1cccc(Cl)c1 [JDL 390, 3-phenylcarbamylsulfonamido-4-(3'-chloro)-phenylaminopyridine] | 16.9 mL/kg | 47.2%
CCCNC(=O)NS(=O)(=O)c1cnccc1Nc1cccc(C(F)(F)F)c1 [JDL 355, 3-propylcarbamylsulfonamido-4-(3'-trifluoromethyl)phenylaminopyridine] | 57.0 mL/kg | 48.8%
C=CCNC(=S)NS(=O)(=O)c1cnccc1Nc1cccc(Cl)c1 [JDL 480, 3-allyl-thiocarbamyl-sulfonamido-4-(3'-chloro)-phenylaminopyridine] | 26.4 mL/kg | 65.6%
CCNC(=O)NS(=O)(=O)c1cnccc1Nc1cccc(F)c1 [JDL 465, 3-ethylcarbamylsulfonamido-4-(3'-fluoro)-phenylaminopyridine] | 76.7 mL/kg | 71.2%
CNC(=O)NS(=O)(=O)c1cnccc1Nc1cccc(Br)c1 [JDL 496, 3-methylcarbamylsulfonamido-4-(3'-bromo)-phenylaminopyridine] | 72.1 mL/kg | 70.4%
CC(C)NC(=O)NS(=O)(=O)c1cnccc1Nc1ccccc1Cl [JDL 421, 3-isopropylcarbamylsulfonamido-4-(2'-chloro)-phenylaminopyridine] | 72.0 mL/kg | 88.8%
CC(C)NC(=O)NS(=O)(=O)c1cnccc1Nc1cccc(F)c1 [JDL 466, 3-isopropylcarbamylsulfonamido-4-(3'-fluoro)-phenylaminopyridine] | 70.7 mL/kg | 68.0%
CC(C)NC(=O)NS(=O)(=O)c1cnccc1Nc1cccc(Cl)c1 [JDL 413, 3-isopropylcarbamylsulfonamido-4-(3'-chloro)-phenylaminopyridine] | 92.5 mL/kg | 76.8%
O=C(NC1CCCCC1)NS(=O)(=O)c1cnccc1Nc1ccccc1Cl [JDL 428, 3-cyclohexylcarbamylsulfonamido-4-(2'-chloro)-phenylamionpyridine] | 15.6 mL/kg | 17.6%
CC(C)NC(=S)NS(=O)(=O)c1cnccc1Nc1cccc(Cl)c1 [JDL 479, 3-isopropylthiocarbamylsulfonamido-4-(3'-chloro)-phenylaminopyridine] | 44.3 mL/kg | 45.6%
CCNC(=O)NS(=O)(=O)c1cnccc1Nc1cccc(OC)c1 [JDL 469, 3-ethylcarbamylsulfonamido-4-(3'-methoxy)-phenylaminopyridine] | 46.9 mL/kg | 60.8%
CCCCNC(=O)NS(=O)(=O)c1cnccc1Nc1ccccc1Cl [JDL 422, 3-butylcarbamylsulfonamido-4(2'-chloro)-phenylaminopyridine] | 56.7 mL/kg | 46.4%

Compound | Diuresis [1] | % inhibition of acute oedema [2]
CNC(=O)NS(=O)(=O)c1cnccc1Nc1ccc(Cl)cc1 [JDL 415, 3-methylcarbamylsulfonamido-4-(4'-chloro)-phenylaminopyridine] | 47.0 mL/kg | 75.2%
CCN(CC)c1ccncc1S(N)(=O)=O [JDL 484, 3-sulfonamido-4-diethylaminopyridine] | 9.0 mL/kg | 13.6%
CCNC(=O)NS(=O)(=O)c1cnccc1Nc1cccc(CC)c1 [JDL 511, 3-ethylcarbamylsulfonamido-4-(3'-ethyl)-phenylaminopyridine] | 66.4 mL/kg | 72.0%
CC(C)NC(=O)NS(=O)(=O)c1cnccc1Nc1cccc(Br)c1 [JDL 468, 3-isopropylcarbamylsulfonamido-4-(3'-bromo)-phenylaminopyridine] | 77.2 mL/kg | 72.0%
O=C(NC1CCCCC1)NS(=O)(=O)c1cnccc1Nc1cccc(Cl)c1 [JDL 389, 3-cyclohexylcarbamylsulfonamido-4-(3'-chloro)-phenylaminopyridine] | 73.3 mL/kg | 64.0%
CNC(=O)NS(=O)(=O)c1cnccc1Nc1cccc([N+](=O)[O-])c1 [JDL 504, 3-methylcarbamylsulfonamido-4-(3'-nitro)-phenylaminopyridine] | 17.2 mL/kg | 43.0%
CNC(=O)NS(=O)(=O)c1cnccc1Nc1cccc(Cl)c1 [JDL 379, 3-methylcarbamylsulfonamido-4-(3'-chloro)-phenylaminopyridine] | 76.5 mL/kg | 63.2%
CCCNC(=O)NS(=O)(=O)c1cnccc1Sc1cccc(Cl)c1 [JDL 384, 3-propylcarbamylsulfonamido-4-(3'-chloro)-thiophenoxypyridine] | 12.8 mL/kg | 66.4%
CC(C)NC(=O)NS(=O)(=O)c1cnccc1NCc1ccco1 [JDL 472, 3-isopropylcarbamylsulfonamido-4-methylfurylaminopyridine] | 69.6 mL/kg | 54.4%
CCCCNC(=O)NS(=O)(=O)c1cnccc1NCc1ccco1 [JDL 485, 3-butylcarbamylsufonamido-4-methyl-furylaminopyridine] | 51.3 mL/kg | 15.2%
COc1cccc(Nc2ccncc2S(=O)(=O)NC(=O)NC(C)C)c1 [JDL 470, 3-isopropylcarbamylsulfonamido-4-(3'-methoxy)-phenylaminopyridine] | 74.9 mL/kg | 83.2%
CNC(=O)NS(=O)(=O)c1cnccc1Nc1cccc(OC)c1 [JDL 493, 3-methylcarbamylsulfonamido-4-(3'-methoxy)-phenylaminopyridine] | 50.7 mL/kg | 59.2%
CCCCNC(=O)NS(=O)(=O)c1cnccc1Nc1ccc(Cl)cc1 [JDL 424, 3-butylcarbamylsulfonamido-4-(4'-chloro)-phenylaminopyridine] | 21.0 mL/kg | 50.4%
O=C(NC1CCCCC1)NS(=O)(=O)c1cnccc1Nc1ccc(Cl)cc1 [JDL 426, 3-cyclohexylcarbamylsulfonamido-4-(4'-chloro)-phenylaminopyridine] | 22.0 mL/kg | 73.6%
CNC(=O)NS(=O)(=O)c1cnccc1NCc1ccco1 [JDL 492, 3-methylcarbamylsulfonamido-4-methyl-furylaminopyridine] | 14.9 mL/kg | 88.8%
CC(=O)NS(=O)(=O)c1cnccc1Sc1cccc(Cl)c1 [JDL 362, 3-acetylsulfonamido-4-(3-chloro)-thiophenoxy-pyridine] | 8.1 mL/kg | 37.6%
Cc1cccc(Nc2ccncc2S(=O)(=O)NC(=O)NC(C)C)c1 [JDL 464, 3-isopropylcarbamylsulfonamido-4-(3'-methyl)-phenylaminopyridine] | 81.6 mL/kg | 76.8%
O=C(Nc1ccc(Cl)cc1)NS(=O)(=O)c1cnccc1Nc1cccc(C(F)(F)F)c1 [JDL 357, 3-parachlorophenylcarbamylsulfonamido-4-(3'-trifluoromethyl)-phenylaminopyridine] | 11.2 mL/kg | 52.0%
